From PubChem BioAssay (NCI) come the findings set out here.

Holding throughout (assay): NCI-60 cell line screen, 48 h
In assay [1] the test system is A498 renal.
The test system of assay [2] is DU-145 prostate.
For assay [3], the system named is EKVX NSCLC.
Assay [4] deals with HCT-15 colon.
Assay [5] deals with HS 578T breast.
The subject of assay [6] is IGROV1 ovarian.
Assay [7] concerns MALME-3M melanoma.
The subject of assay [8] is NCI-H23 lung.
Assay [9] concerns RPMI-8226 leukemia.
Assay [10] concerns SK-MEL-5 melanoma.

Molecules are shown by their SMILES. Several values for one entry are separate records, joined by “and”; a condition that tells them apart may be missing. Identical values can stand only once.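 Briefly, cells in 96-well plates were exposed to five compound concentrations for 48 h, and endpoints were estimated by linear interpolation. GI50 is the concentration that inhibits growth by half. TGI: concentration producing complete growth inhibition.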 A value given as a limit tells only on which side of the number the result lay.

`Cc1cc(I)cc(CN(C)CCCCN2CCCCC2)c1O`: the GI50 in assay [1] is 11.4 µM; in assay [2], 26.8 µM; in assay [3], 20.9 µM; in [4], 6.08 µM; in assay [5], 8.9 µM; in assay [6] it was 17.7 µM. Also, the GI50 in [7] is 12.7 µM; in [8], 24.7 µM; in [9], 8.68 µM; in assay [10], 3.33 µM. For the same compound, the TGI in [1] is 25.4 µM; in assay [2], above 100 µM; in assay [3] it was 87.3 µM; in assay [4], 25.8 µM; in assay [5] it was 23.5 µM; in assay [6], 41 µM. Moreover, the TGI in assay [7] was 28 µM; in [8], above 100 µM; in assay [9], 25.5 µM; in assay [10] it was 10.7 µM.

Turning to `O=C(Nc1ccccc1OC(F)(F)F)Nc1n[nH]c2ccccc12`, the GI50 was above 100 µM in [1]; 51.7 µM in assay [2]; 48.2 µM in assay [3]; 36.2 µM in assay [4]; 19.4 µM in [5]; 4.59 µM in assay [6]. The GI50 in [7] was 76.8 µM; in assay [8], 50 µM; in [9] it was 5.2 µM; in [10], 28.7 µM. Further, the TGI is above 100 µM in [1]; above 100 µM in [2]; above 100 µM in assay [3]; above 100 µM in [4]; above 100 µM in assay [5]; 83.6 µM in [6]. Also, the TGI in assay [7] is above 100 µM; in assay [8], above 100 µM; in assay [9], 53.1 µM; in assay [10], above 100 µM.

As to `CCC(CO)Nc1nc2ccc(Cl)cc2c2ccccc12` (stereo unspecified), the GI50 in assay [1] is 4.6 µM; in [2], 12.8 µM; in assay [3], 6.23 µM; in assay [4], 3.7 µM; in assay [5], 8.82 µM; in assay [6], 11.2 µM. Also, the GI50 in [7] is 15.7 µM; in assay [8], 12.3 µM; in assay [9], 4.04 µM; in assay [10], 11.2 µM. Moreover, the TGI in [1] amounted to 16 µM; in [2], 25.4 µM; in assay [3], 20.2 µM; in assay [4], 15.4 µM; in [5] it was 34.9 µM; in assay [6], 23.5 µM. Moreover, the TGI in assay [7] amounted to 29.3 µM; in assay [8] it was 25.9 µM; in assay [9], 26.4 µM; in assay [10], 23.3 µM.

On to `CSc1nc2c(c(=O)[nH]1)N=C1c3ccccc3C(=O)C1C(c1ccccc1)N2` (stereo unspecified), for which the GI50 is 2 µM in [1]; 13.4 µM in assay [2]; 12.8 µM in assay [3]; 2.8 µM in assay [4]; 2.1 µM in assay [5]; 4.54 µM in assay [6]. Besides, the GI50 is 2.33 µM in [7], 5.82 µM in assay [8], 3.01 µM in assay [9] and 1.5 µM in [10]. The TGI was 38 µM in assay [1]; above 100 µM in assay [2]; above 100 µM in assay [3]; above 100 µM in assay [4]; 7.18 µM in assay [5]; above 100 µM in assay [6]. The TGI in [7] was above 100 µM; in assay [8] it was above 100 µM; in assay [9] it was above 100 µM; in [10] it was 67.2 µM.

As to `O=C(CC1(O)C(=O)Nc2c(Cl)cc(Cl)cc21)c1ccc(Br)cc1Br` (stereo unspecified), the TGI in [1] was 40 µM; in [2], 32.3 µM; in assay [3] it was 34.6 µM; in assay [4], 22.2 µM; in assay [5], 26.5 µM; in assay [6], 34.7 µM. The TGI was 23.7 µM in [7], 21.2 µM in assay [8], 21.6 µM in [9] and 14.6 µM in [10].

In the case of `COc1ccc2c(c1)/C(=C/c1c(C)nc3sc(C)nn13)C(=O)N2`, the GI50 in assay [1] was 3.07 µM; in assay [2], 6.11 µM; in [3], 8.36 µM; in assay [4], 0.879 µM; in assay [5], 5.16 µM; in [6], 2.18 µM. Also, the GI50 in [8] is 3.33 µM; in [9] it was 4.17 µM; in [10], 1.5 µM. Besides, the TGI in assay [1] is above 50 µM; in assay [2] it was above 100 µM; in assay [3] it was above 100 µM; in [4], above 100 µM; in assay [5] it was above 68.3 µM; in [6], above 100 µM. Moreover, the TGI is above 100 µM in assay [7], above 65.5 µM in assay [8], above 100 µM in assay [9] and above 100 µM in [10].

Take `O=C(/C=C/C12c3ccccc3C(c3ccccc31)C1C(=O)NC(=O)C12)c1ccncc1` (stereo unspecified): the GI50 is 14.1 µM in [1]; 2.8 µM in [2]; 6.02 µM in assay [3]; 1.46 µM in assay [4]; 3.04 µM in assay [5]; 2.39 µM in assay [6]. Also, the GI50 in [7] was 3.16 µM; in [8] it was 2.09 µM; in assay [9], 2.11 µM; in assay [10], 1.72 µM. Moreover, the TGI stood at 28.3 µM in assay [1]; 11.8 µM in assay [2]; 20.8 µM in assay [3]; 3.94 µM in [4]; 19.8 µM in assay [5]; 8 µM in assay [6]. Besides, the TGI in assay [7] worked out at 12.2 µM; in assay [8] it was 4.45 µM; in [9], 5.48 µM; in [10], 3.25 µM.

Regarding `Clc1ccc2c(NCCCCNc3nc(N4CCCCC4)nc4ccccc34)ccnc2c1`, the GI50 in assay [1] is 1.78 µM; in assay [2], 3.8 µM; in [3], 2.69 µM; in [4], 1.15 µM; in assay [5], 1.82 µM; in assay [6], 1.8 µM. Moreover, the GI50 in assay [7] is 1.85 µM; in assay [8], 4.67 µM; in assay [9], 1.46 µM; in assay [10] it was 1.77 µM. The TGI in assay [1] was determined as 4.62 µM; in assay [2], 15.2 µM; in assay [3], 13.8 µM; in assay [4], 3.13 µM; in assay [5] it was 4.6 µM; in [6], 6.59 µM. The TGI in [7] is 3.48 µM; in assay [8], 19.2 µM; in [9] it was 3.94 µM; in assay [10], 3.18 µM.

With `COC1=CC(c2ccc[nH]2)=N/C1=C\c1[nH]c(C)c(C(=O)OC(C)C)c1C`, the GI50 in [1] was 0.255 µM; in assay [2], 0.0609 µM; in [3], 0.0799 µM; in assay [4], 0.026 µM; in assay [5] it was 0.0445 µM; in assay [6], 0.0535 µM. The GI50 in assay [7] is 0.456 µM; in assay [8], 0.0702 µM; in assay [9] it was 0.223 µM; in assay [10], 0.0242 µM. The TGI came out at 1.92 µM in assay [1]; 6.47 µM in [2]; 2.31 µM in [3]; 1.14 µM in [4]; 0.34 µM in assay [5]; 1.62 µM in [6]. The TGI in [7] was 2.19 µM; in assay [8], 1.74 µM; in assay [9], 2.47 µM; in assay [10], 0.0773 µM.

As to `CCOC(=O)[C@]1(OC(C)=O)C[C@H](OC(C)=O)[C@@H](C(F)COP(=O)(OCc2ccccc2)OCc2ccccc2)O1` (stereo partly specified), the GI50 in assay [1] was 24.7 µM and > 100 µM; in assay [3], 26.3 µM and > 100 µM; in assay [4], 33.1 µM and > 100 µM; in assay [6], 19.6 µM and > 100 µM; in assay [7], 13.9 µM and > 100 µM; in [8], 48.9 µM and > 100 µM. Also, the TGI in assay [1] was 52.8 µM and > 100 µM; in assay [2], above 100 µM; in [3], 71.3 µM and > 100 µM; in assay [4] it was above 100 µM; in [5], above 100 µM; in assay [6], 39.8 µM and > 100 µM. Further, the TGI was 33.8 µM and > 100 µM in assay [7]; above 100 µM in [8]; 46.5 µM and 82.5 µM in assay [9]; above 100 µM in assay [10].

In the case of `Cc1ccc2c(=O)cc(-c3ccc(F)cc3)[nH]c2n1`, the TGI in assay [1] was 66.6 µM; in assay [2] it was above 100 µM; in assay [3], above 100 µM; in assay [4] it was above 100 µM; in [5], above 100 µM; in [6], above 100 µM. Further, the TGI in assay [7] is above 100 µM; in [8] it was above 100 µM; in assay [9], 95.1 µM; in [10], above 100 µM. Also, the GI50 in [10] was 31.3 µM.

On to `COC1=CC(=O)c2nc(-c3ccncc3)[nH]c2C1=O`, for which the GI50 in assay [1] is above 100 µM; in [2] it was above 100 µM; in assay [3] it was above 100 µM; in assay [4] it was above 100 µM; in assay [5], 60 µM; in assay [6], above 100 µM. The GI50 in assay [7], in assay [8], in assay [9] and in assay [10] was above 100 µM each time. Also, the TGI in [1], in assay [2], in [3], in [4], in assay [5] and in assay [6] was above 100 µM in each case. The TGI in assay [7], in assay [8], in assay [9] and in [10] was above 100 µM in each case.
